Laboratory results published in PubChem BioAssay AID1963833 (Molecular Pharmacology Branch, DTP, NCI, 2024).

Test system: 883617-216-R-J1-PDC complex spheroid viability
Assay: Anticancer human tumor 883617-216-R-J1-PDC patient-derived bladder carcinoma cell line growth inhibition [POLQ]
Conditions: for IC50: curve of first compound; for viability, T/C: stronger effect = lower value
Summary of the method: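 Three-cell-type spheroids modelling solid tumor plus stroma served as the readout system; POL inhibitors were tested individually and in combination, concentration ranges set by clinical Cmax where known.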

[1] = second compound 0.0316 µM, first compound 0.0316 µM
[2] = second compound 0.0316 µM, first compound 0.1 µM
[3] = second compound 0.0316 µM, first compound 0.316 µM
[4] = second compound 0.0316 µM, first compound 1 µM
[5] = second compound 0.0316 µM, first compound 3.16 µM
[6] = second compound 0.0316 µM, first compound 10 µM
[7] = second compound 0.1 µM, first compound 0.0316 µM
[8] = second compound 0.1 µM, first compound 0.1 µM
[9] = second compound 0.1 µM, first compound 0.316 µM
[10] = second compound 0.1 µM, first compound 1 µM
[11] = second compound 0.1 µM, first compound 3.16 µM
[12] = second compound 0.1 µM, first compound 10 µM
[13] = second compound 0.316 µM, first compound 0.0316 µM
[14] = second compound 0.316 µM, first compound 0.1 µM
[15] = second compound 0.316 µM, first compound 0.316 µM
[16] = second compound 0.316 µM, first compound 1 µM
[17] = second compound 0.316 µM, first compound 3.16 µM
[18] = second compound 0.316 µM, first compound 10 µM
[19] = second compound 1 µM, first compound 0.0316 µM
[20] = second compound 1 µM, first compound 0.1 µM
[21] = second compound 1 µM, first compound 0.316 µM
[22] = second compound 1 µM, first compound 1 µM
[23] = second compound 1 µM, first compound 3.16 µM
[24] = second compound 1 µM, first compound 10 µM
[25] = second compound 3.16 µM, first compound 0.0316 µM
[26] = second compound 3.16 µM, first compound 0.1 µM
[27] = second compound 3.16 µM, first compound 0.316 µM
[28] = second compound 3.16 µM, first compound 1 µM
[29] = second compound 3.16 µM, first compound 3.16 µM
[30] = second compound 3.16 µM, first compound 10 µM
[31] = second compound 10 µM, first compound 0.0316 µM
[32] = second compound 10 µM, first compound 0.1 µM
[33] = second compound 10 µM, first compound 0.316 µM
[34] = second compound 10 µM, first compound 1 µM
[35] = second compound 10 µM, first compound 3.16 µM
[36] = second compound 10 µM, first compound 10 µM
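Further: spheroids exposed to compounds for seven days before readout.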
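Wherever viability, T/C is given: 100% = DMSO vehicle control viability.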

`C#Cc1c(F)ccc2cc(O)cc(-c3ncc4c(N5CC6CCC(C5)N6)nc(OCC56CCCN5CC(F)C6)nc4c3F)c12` (stereo unspecified) + Nc1ccc(C#CCN(C(=O)Cc2ncc(C(F)(F)F)cc2C(F)(F)F)c2ccc(F)cc2)nn1 was tested, and the IC50 (second compound 0.0316 µM) was over 10 µM, the IC50 (second compound 0.1 µM) was over 10 µM and the IC50 (second compound 0.316 µM) was over 10 µM. It also gave an IC50 (second compound 1 µM) of over 10 µM, an IC50 (second compound 3.16 µM) of over 10 µM and an IC50 (second compound 10 µM) of over 10 µM. It also gave a viability, T/C [1] of 82%, a viability, T/C [2] of 92.8% and a viability, T/C [3] of 97.7%. It also gave a viability, T/C [4] of 90.3%, a viability, T/C [5] of 71.7% and a viability, T/C [6] of 75.1%. It also gave a viability, T/C [7] of 100%, a viability, T/C [8] of 98.5% and a viability, T/C [9] of 90.6%. The viability, T/C [10] was 93.7%, the viability, T/C [11] was 93% and the viability, T/C [12] was 81%. For the same compound, the viability, T/C [13] was 86.8%, the viability, T/C [14] was 84.2% and the viability, T/C [15] was 87.8%. It also gave a viability, T/C [16] of 78.7%, a viability, T/C [17] of 82.1% and a viability, T/C [18] of 84.8%. The viability, T/C [19] was 108%, the viability, T/C [20] was 87.7% and the viability, T/C [21] was 84.7%. It also gave a viability, T/C [22] of 77.9%, a viability, T/C [23] of 82.2% and a viability, T/C [24] of 80.1%. For the same compound, the viability, T/C [25] was 91.1%, the viability, T/C [26] was 89.7% and the viability, T/C [27] was 89.1%. The viability, T/C [28] was 101%, the viability, T/C [29] was 102% and the viability, T/C [30] was 88.1%. The viability, T/C [31] was 102%, the viability, T/C [32] was 109% and the viability, T/C [33] was 113%. The viability, T/C [34] was 108%, the viability, T/C [35] was 99.3% and the viability, T/C [36] was 102%.
Work on `CC1COCCN1c1cc(C2(O)CC3CCC(C2)O3)c2cnn(-c3ccn[nH]3)c2n1` (stereo unspecified) + Nc1ccc(C#CCN(C(=O)Cc2ncc(C(F)(F)F)cc2C(F)(F)F)c2ccc(F)cc2)nn1 yielded an IC50 (second compound 0.0316 µM) of 0.214 µM, an IC50 (second compound 0.1 µM) of 0.168 µM and an IC50 (second compound 0.316 µM) of 0.414 µM. For the same compound, the IC50 (second compound 1 µM) was 0.175 µM, the IC50 (second compound 3.16 µM) was 0.218 µM and the IC50 (second compound 10 µM) was 0.269 µM. It also gave a viability, T/C [1] of 70.8%, a viability, T/C [2] of 50.9% and a viability, T/C [3] of 48%. It also gave a viability, T/C [4] of 38.4%, a viability, T/C [5] of 35% and a viability, T/C [6] of 22.9%. For the same compound, the viability, T/C [7] was 75.2%, the viability, T/C [8] was 50.6% and the viability, T/C [9] was 40.9%. For the same compound, the viability, T/C [10] was 44.2%, the viability, T/C [11] was 34.9% and the viability, T/C [12] was 23.8%. It also gave a viability, T/C [13] of 68.8%, a viability, T/C [14] of 63.2% and a viability, T/C [15] of 47.8%. It also gave a viability, T/C [16] of 42.9%, a viability, T/C [17] of 37.5% and a viability, T/C [18] of 21.9%. The viability, T/C [19] was 60.9%, the viability, T/C [20] was 51.9% and the viability, T/C [21] was 45.1%. For the same compound, the viability, T/C [22] was 39.9%, the viability, T/C [23] was 32.3% and the viability, T/C [24] was 20.9%. It also gave a viability, T/C [25] of 67%, a viability, T/C [26] of 60.2% and a viability, T/C [27] of 45.2%. For the same compound, the viability, T/C [28] was 33.8%, the viability, T/C [29] was 38.7% and the viability, T/C [30] was 26.9%. It also gave a viability, T/C [31] of 73.1%, a viability, T/C [32] of 53.1% and a viability, T/C [33] of 53.1%. The viability, T/C [34] was 41.5%, the viability, T/C [35] was 39.2% and the viability, T/C [36] was 35.3%.
`CCc1cc2c(N3CCc4c(cc(Cn5ccnc5)cc4-c4cn(C)nc4C(F)(F)F)C3=O)cc(C)nc2c(OC)n1` + Nc1ccc(C#CCN(C(=O)Cc2ncc(C(F)(F)F)cc2C(F)(F)F)c2ccc(F)cc2)nn1 showed an IC50 (second compound 0.0316 µM) of over 10 µM, an IC50 (second compound 0.1 µM) of over 10 µM and an IC50 (second compound 0.316 µM) of over 10 µM. It also gave an IC50 (second compound 1 µM) of over 10 µM, an IC50 (second compound 3.16 µM) of over 10 µM and an IC50 (second compound 10 µM) of 9.75 µM. The viability, T/C [1] was 89.2%, the viability, T/C [2] was 92.2% and the viability, T/C [3] was 92.8%. It also gave a viability, T/C [4] of 90.4%, a viability, T/C [5] of 76% and a viability, T/C [6] of 52.3%. The viability, T/C [7] was 85.5%, the viability, T/C [8] was 96.9% and the viability, T/C [9] was 95.5%. For the same compound, the viability, T/C [10] was 90.6%, the viability, T/C [11] was 79.5% and the viability, T/C [12] was 64.5%. For the same compound, the viability, T/C [13] was 105%, the viability, T/C [14] was 93.1% and the viability, T/C [15] was 98%. It also gave a viability, T/C [16] of 88.4%, a viability, T/C [17] of 73.9% and a viability, T/C [18] of 57.4%. The viability, T/C [19] was 91.5%, the viability, T/C [20] was 93.3% and the viability, T/C [21] was 94%. For the same compound, the viability, T/C [22] was 88.9%, the viability, T/C [23] was 71.6% and the viability, T/C [24] was 61.8%. It also gave a viability, T/C [25] of 106%, a viability, T/C [26] of 92.4% and a viability, T/C [27] of 96.4%. For the same compound, the viability, T/C [28] was 97.5%, the viability, T/C [29] was 78.6% and the viability, T/C [30] was 67.8%. For the same compound, the viability, T/C [31] was 106%, the viability, T/C [32] was 118% and the viability, T/C [33] was 115%. The viability, T/C [34] was 101%, the viability, T/C [35] was 90.5% and the viability, T/C [36] was 48.8%.
